# According to patent US4183848A, “Analgesic polypeptide” (American Home Products Corporation, priority 1977, dated 1980):
# Where a SMILES comes first, the peptide text is derived from it. [ ]: non-standard residue; d: D form. Aib = CC(C)(N)C(=O)O
# Experiments:
# rat tail flick test = rat tail flick test (method of D-Amour and Smith), analgesic activity; format: in vivo
# Description: The representative polypeptide of this invention Tyr-D-Ala-Gly-Phe-2-MeAla-NH2, gave the following results in the reference standard rat tail flick test: […]
# mouse vas deferens = settings: cited from earlier work
# rats = settings: injection in the brain ventricle in rats; fully reversible by naloxone; cited from earlier work
# guinea pig ileum = settings: cited from earlier work
# opiate receptor = settings: brain homogenates; cited from earlier work
# [1] = peripheral administration; cited from earlier work
# [2] = intracerebroventricular administration; cited from earlier work
compound,measurement,setting,value
"CC(=O)O.C[C@@H](NC(=O)[C@@H](N)Cc1ccc(O)cc1)C(=O)NCC(=O)N[C@@H](Cc1ccccc1)C(=O)NC(C)(C)C(N)=O [Tyr-D-Ala-Gly-Phe-2-MeAla-NH2, L-Tyrosyl-D-Alanylglycyl-L-Phenylalanyl-2-Methylalaninamide acetate] (H-Y[dA]GF[Aib]-NH2)",No. showing analgesia/No. tested,"rat tail flick test; intravenous 1.0 milligram/kilogram, 15 minutes after administration",6/6
same,No. showing analgesia/No. tested,"rat tail flick test; intravenous 1.0 milligram/kilogram, 30 minutes after administration",4/6
same,No. showing analgesia/No. tested,"rat tail flick test; intravenous 1.0 milligram/kilogram, 60 minutes after administration",3/6
same,No. showing analgesia/No. tested,"rat tail flick test; intravenous 2.5 milligram/kilogram, 15 minutes after administration",5/6
same,No. showing analgesia/No. tested,"rat tail flick test; intravenous 2.5 milligram/kilogram, 30 minutes after administration",5/6
same,No. showing analgesia/No. tested,"rat tail flick test; intravenous 2.5 milligram/kilogram, 60 minutes after administration",2/6
same,No. showing analgesia/No. tested,"rat tail flick test; intravenous 5.0 milligram/kilogram, 15 minutes after administration",5/5
same,No. showing analgesia/No. tested,"rat tail flick test; intravenous 5.0 milligram/kilogram, 30 minutes after administration",4/5
same,No. showing analgesia/No. tested,"rat tail flick test; intravenous 5.0 milligram/kilogram, 60 minutes after administration",2/5
same,No. showing analgesia/No. tested,"rat tail flick test; intravenous .5 milligram/kilogram, 15 minutes after administration",0/6
same,No. showing analgesia/No. tested,"rat tail flick test; intravenous .5 milligram/kilogram, 30 minutes after administration",1/6
same,No. showing analgesia/No. tested,"rat tail flick test; intravenous .5 milligram/kilogram, 60 minutes after administration",1/6
same,No. showing analgesia/No. tested,"rat tail flick test; subcutaneous 5.0 milligram/kilogram, 30 minutes after administration",3/6
same,No. showing analgesia/No. tested,"rat tail flick test; subcutaneous 5.0 milligram/kilogram, 60 minutes after administration",1/6
same,No. showing analgesia/No. tested,"rat tail flick test; subcutaneous 5.0 milligram/kilogram, 90 minutes after administration",2/6
same,No. showing analgesia/No. tested,"rat tail flick test; subcutaneous 5.0 milligram/kilogram, 120 minutes after administration",0/6
same,No. showing analgesia/No. tested,"rat tail flick test; subcutaneous 10.0 milligram/kilogram, 30 minutes after administration",6/6
same,No. showing analgesia/No. tested,"rat tail flick test; subcutaneous 10.0 milligram/kilogram, 60 minutes after administration",5/6
same,No. showing analgesia/No. tested,"rat tail flick test; subcutaneous 10.0 milligram/kilogram, 90 minutes after administration",2/6
same,No. showing analgesia/No. tested,"rat tail flick test; subcutaneous 10.0 milligram/kilogram, 120 minutes after administration",1/6
H-Tyr-Gly-Gly-Phe-Leu-OH [leucine-enkephalin],block of electrically evoked contractions,mouse vas deferens,mimic the ability of morphine to block electrically evoked contractions
same,analgesia,rats,profound analgesia
same,block of electrically evoked contractions,guinea pig ileum,mimic the ability of morphine to block electrically evoked contractions
same,inhibition of stereospecific receptor binding of 3H-naloxone,opiate receptor,inhibit
same,activity when administered peripherally,[1],inactive
H-Tyr-Gly-Gly-Phe-Met-OH [methionine-enkephalin],block of electrically evoked contractions,mouse vas deferens,mimic the ability of morphine to block electrically evoked contractions
same,analgesia,rats,profound analgesia
same,block of electrically evoked contractions,guinea pig ileum,mimic the ability of morphine to block electrically evoked contractions
same,inhibition of stereospecific receptor binding of 3H-naloxone,opiate receptor,inhibit
same,activity when administered peripherally,[1],inactive
Tyr-D-Ala-Gly-Phe-D-Leu,activity when administered intracerebroventricularly,[2],activity
